{
  "source": "patent US8889671B2",
  "about": "“Compounds and methods for treating bacterial infections” (AstraZeneca AB, priority 2013, dated 2014)",
  "key": {"Klebsiella pneumoniae": {"tested_on": "Klebsiella pneumoniae", "experiment": "Susceptibility testing (MIC) Assay 2, broth microdilution", "format": "cell-based", "details": "clinical isolate, mucoid, read-out: Kpn MIC"}, "[1]": {"experiment": "Plasma pharmacokinetics in S. aureus infected mice", "format": "in vivo, mouse", "details": "intraperitoneal, mice with ABT", "description": "Groups of satellite mice infected with S. aureus were used for determining plasma concentrations. Dosing started 2 hours after infection and whole blood samples were taken at time points 0.5, 1, 2, 4, 6, 8, 12 and 24 h by submandibular bleed or by cardiac puncture following carbon dioxide asphyxiation and cervical dislocation. Whole blood was sampled into microcontainer tubes containing ethylenediamine tetraacetic acid (EDTA) (Beckton Dickenson). Three mice per time point were used. Plasma was separated by centrifugation for five minutes at 13200 rpm and stored at −20° C. until bioanalysis.\nBiological samples containing Example 5 were extracted using protein precipitation. To one volume of sample, 5 volumes of acetonitrile containing the internal standard (Glyburide) were added. […] A Sciex API 4000, controlled by Analyst v1.4.2, was used for the acquisition of the data and the quantification of Example 5.\nThe plasma profile for each dose group was obtained by calculating the average plasma concentration of compound in each of the three animals per time point. The area under the plasma concentration time curve from zero to infinity (AUC); maximum plasma drug concentration (Cmax); time to reach maximum concentration (tmax); and plasma half-life (t1/2) for each dose group was determined by non-compartmental analysis (WinNonLin 5.2, Pharsight). […]"}, "Candida albicans": {"tested_on": "Candida albicans", "experiment": "In vitro antibacterial activity of Example 5 (MIC)", "format": "cell-based", "details": "ATCC90028; Candida albicans (ATCC 90028 CLSI QC Strain)"}, "Citrobacter koseri": {"tested_on": "Citrobacter koseri", "experiment": "In vitro antibacterial activity of Example 5 (MIC)", "format": "cell-based"}, "Proteus mirabilis": {"tested_on": "Proteus mirabilis", "experiment": "In vitro antibacterial activity of Example 5 (MIC)", "format": "cell-based"}, "Proteus vulgaris": {"tested_on": "Proteus vulgaris", "experiment": "In vitro antibacterial activity of Example 5 (MIC)", "format": "cell-based"}, "[2]": {"tested_on": "Staphylococcus epidermidis", "experiment": "In vitro antibacterial activity of Example 5 (MIC)", "format": "cell-based"}, "[3]": {"tested_on": "Staphylococcus lugdunensis", "experiment": "In vitro antibacterial activity of Example 5 (MIC)", "format": "cell-based"}, "[4]": {"tested_on": "Staphylococcus saprophyticus", "experiment": "In vitro antibacterial activity of Example 5 (MIC)", "format": "cell-based"}, "Streptococcus agalactiae": {"tested_on": "Streptococcus agalactiae", "experiment": "In vitro antibacterial activity of Example 5 (MIC)", "format": "cell-based"}, "Clostridium perfringens": {"tested_on": "Clostridium perfringens", "experiment": "microbe, parasite or virus in culture", "format": "cell-based"}, "[5]": {"tested_on": "Prevotella melaninogenica", "experiment": "In vitro antibacterial activity of Example 5 against anaerobes (MIC, agar dilution)", "format": "cell-based"}, "Legionella pneumophila": {"tested_on": "Legionella pneumophila", "experiment": "microbe, parasite or virus in culture", "format": "cell-based"}, "[6]": {"tested_on": "7 S. aureus strains and 1 strain of Streptococcus pyogenes", "experiment": "Minimum bactericidal concentration (MBC)", "format": "cell-based, Staphylococcus aureus; Streptococcus pyogenes", "details": "7 S. aureus strains and 1 S. pyogenes strain"}, "Staphylococcus aureus": {"tested_on": "Staphylococcus aureus", "experiment": "Emergence of resistance with serial passage", "format": "cell-based", "details": "after twenty passages with Example 5, S. aureus isolates (516 and 2398)"}, "Neisseria gonorrhoeae": {"tested_on": "Neisseria gonorrhoeae", "experiment": "MIC against 100 N. gonorrhoeae isolates, CLSI reference agar dilution", "format": "cell-based"}, "[7]": {"tested_on": "Staphylococcus aureus, Streptococcus pneumoniae, and S. pyogenes strains with characterized gyrase and topoisomerase mutations", "format": "cell-based", "details": "clinical isolates with mutations in gyrA, gyrB, ParC or ParE"}, "[8]": {"tested_on": "Streptococcus pyogenes ATCC12384", "experiment": "S. pyogenes neutropenic mouse thigh infection model, PK/PD"}, "[9]": {"details": "azithromycin-intermediate isolates"}, "[10]": {"details": "S. pyogenes ATCC12384, neutropenic mouse thigh"}},
  "note": "“And” between values parts separate entries of the source, which are not always exact repeats. Equal entries are not always repeated. Where two headings read alike, the source gives them in different places.",
  "data": [
    {"smiles": "C[C@@H]1CN2c3c(cc4c(N5C(=O)OC[C@@H]5C)noc4c3F)CC3(C(=O)NC(=O)NC3=O)[C@H]2[C@H](C)O1", "note": "[Example 5, (2R,4S,4aS)-11-Fluoro-2,4-dimethyl-8-[(4S)-4-methyl-2-oxo-1,3-oxazolidin-3-yl]-1,2,4,4a-tetrahydro-2′H,6H-spiro[1,4-oxazino[4,3-a][1,2]oxazolo[4,5-g]quinoline-5,5′-pyrimidine]-2′,4′,6′(1′H,3′H)-trione]", "values": [
      {"measurement": "MIC", "setting": "Klebsiella pneumoniae", "result": "> 200", "unit": "µM"},
      {"measurement": "pharmacokinetics over the dosing range", "setting": "[1]", "result": "nonlinear pharmacokinetics"},
      {"measurement": "time of maximum concentration post-administration", "setting": "[1]", "result": 0.5, "unit": "h"},
      {"measurement": "MIC", "setting": "Candida albicans", "result": "> 64", "unit": "µg/mL"},
      {"measurement": "MIC", "setting": "Citrobacter koseri", "result": 64, "unit": "µg/mL"},
      {"measurement": "MIC", "setting": "Proteus mirabilis", "result": 8, "unit": "µg/mL"},
      {"measurement": "MIC", "setting": "Proteus vulgaris", "result": 32, "unit": "µg/mL"},
      {"measurement": "MIC", "setting": "[2]; Staphylococcus epidermidis (MRSE)", "result": 0.25, "unit": "µg/mL"},
      {"measurement": "MIC90", "setting": "[2]; Staphylococcus epidermidis, S. epidermidis, n=37", "result": 0.25, "unit": "µg/mL"},
      {"measurement": "MIC", "setting": "[3]", "result": 1, "unit": "µg/mL"},
      {"measurement": "MIC90", "setting": "[3]; S. lugdunensis, n=11", "result": 0.5, "unit": "µg/mL"},
      {"measurement": "MIC", "setting": "[4]", "result": 0.5, "unit": "µg/mL"},
      {"measurement": "MIC90", "setting": "[4]; S. saprophyticus, n=16", "result": 0.5, "unit": "µg/mL"},
      {"measurement": "MIC", "setting": "Streptococcus agalactiae", "result": 0.5, "unit": "µg/mL"},
      {"measurement": "MIC90", "setting": "Streptococcus agalactiae; 100 strains of S. Agalactiae", "result": 0.25, "unit": "µg/mL"},
      {"measurement": "MIC50", "setting": "Streptococcus agalactiae; 100 strains of S. Agalactiae, read-out: MIC50 (MICH [sic])", "result": 0.125, "unit": "µg/mL"},
      {"measurement": "MIC", "setting": "Clostridium perfringens", "result": 0.5, "unit": "µg/mL"},
      {"measurement": "MIC", "setting": "[5]", "result": 0.25, "unit": "µg/mL"},
      {"measurement": "MIC90", "setting": "Legionella pneumophila", "result": 0.06, "unit": "µg/mL"},
      {"measurement": "MIC range", "setting": "Legionella pneumophila; n=11", "result": "0.008 to 0.06", "unit": "µg/mL"},
      {"measurement": "minimum bactericidal concentrations (MBCs) relative to the MIC", "setting": "[6]", "result": "≤ 2", "unit": "fold"},
      {"measurement": "decrease in susceptibility over the starting culture", "setting": "Staphylococcus aureus", "result": "32 fold and 16 fold"},
      {"measurement": "MIC", "setting": "Neisseria gonorrhoeae; Neisseria gonorrhoeae, ATCC49226, QC strain N. gonorrhoeae ATCC 49226, read-out: MIC", "result": 0.06, "unit": "µg/mL"},
      {"measurement": "MIC", "setting": "Neisseria gonorrhoeae; Neisseria gonorrhoeae, all 100 N. gonorrhoeae isolates tested, read-out: MIC values", "result": "≤ 0.25", "unit": "µg/mL"},
      {"measurement": "MIC90", "setting": "Neisseria gonorrhoeae; Neisseria gonorrhoeae, azithromycin-intermediate isolates, read-out: MIC90", "result": 0.12, "unit": "µg/mL"},
      {"measurement": "MIC", "setting": "Neisseria gonorrhoeae; Neisseria gonorrhoeae, azithromycin-susceptible and -intermediate isolates, read-out: modal MIC", "result": 0.06, "unit": "µg/mL"},
      {"measurement": "MIC90", "setting": "Neisseria gonorrhoeae; Neisseria gonorrhoeae, azithromycin-susceptible isolates, read-out: MIC90", "result": 0.06, "unit": "µg/mL"},
      {"measurement": "MIC90", "setting": "Neisseria gonorrhoeae; Neisseria gonorrhoeae, ciprofloxacin-intermediate and -resistant strains, read-out: MIC90", "result": 0.12, "unit": "µg/mL"},
      {"measurement": "MIC", "setting": "Neisseria gonorrhoeae; Neisseria gonorrhoeae, ciprofloxacin-intermediate and -resistant strains, read-out: modal MIC", "result": 0.06, "unit": "µg/mL"},
      {"measurement": "MIC90", "setting": "Neisseria gonorrhoeae; Neisseria gonorrhoeae, non-susceptible phenotypes, read-out: MIC90", "result": "0.06 to 0.12", "unit": "µg/mL"},
      {"measurement": "MIC", "setting": "Neisseria gonorrhoeae; Neisseria gonorrhoeae, penicillin-intermediate and -resistant strains, read-out: modal MIC", "result": 0.06, "unit": "µg/mL"},
      {"measurement": "MIC90", "setting": "Neisseria gonorrhoeae; Neisseria gonorrhoeae, penicillin-intermediate strains, read-out: MIC90", "result": 0.06, "unit": "µg/mL"},
      {"measurement": "MIC90", "setting": "Neisseria gonorrhoeae; Neisseria gonorrhoeae, penicillin-resistant strains, read-out: MIC90", "result": 0.12, "unit": "µg/mL"},
      {"measurement": "MIC90", "setting": "Neisseria gonorrhoeae; Neisseria gonorrhoeae, susceptible phenotypes (ciprofloxacin-, tetracycline- and azithromycin-susceptible), read-out: MIC90", "result": 0.06, "unit": "µg/mL"},
      {"measurement": "MIC", "setting": "Neisseria gonorrhoeae; Neisseria gonorrhoeae, tetracycline-intermediate and -resistant strains, read-out: modal MIC", "result": 0.06, "unit": "µg/mL"},
      {"measurement": "MIC90", "setting": "Neisseria gonorrhoeae; Neisseria gonorrhoeae, tetracycline-intermediate strains, read-out: MIC90", "result": 0.06, "unit": "µg/mL"},
      {"measurement": "MIC90", "setting": "Neisseria gonorrhoeae; Neisseria gonorrhoeae, tetracycline-resistant strains, read-out: MIC90", "result": 0.12, "unit": "µg/mL"},
      {"measurement": "MIC", "setting": "Neisseria gonorrhoeae; Neisseria gonorrhoeae, various subsets of isolates including those non-susceptible to comparator agents, read-out: modal MIC", "result": 0.06, "unit": "µg/mL"},
      {"measurement": "MIC50", "setting": "Neisseria gonorrhoeae; Neisseria gonorrhoeae, all 100 N. gonorrhoeae isolates, read-out: MIC50", "result": 0.06, "unit": "µg/mL"},
      {"measurement": "MIC90", "setting": "Neisseria gonorrhoeae; Neisseria gonorrhoeae, all 100 N. gonorrhoeae isolates, read-out: MIC90", "result": 0.125, "unit": "µg/mL"},
      {"measurement": "MIC", "setting": "Neisseria gonorrhoeae; QC strain N. gonorrhoeae ATCC 49226", "result": 0.12, "unit": "µg/mL"},
      {"measurement": "MIC90", "setting": "Neisseria gonorrhoeae; all 100 N. gonorrhoeae isolates", "result": 0.12, "unit": "µg/mL"},
      {"measurement": "MIC50", "setting": "Neisseria gonorrhoeae; [9]", "result": 0.06, "unit": "µg/mL"},
      {"measurement": "isolates at 0.06 μg/mL", "setting": "Neisseria gonorrhoeae; [9]", "result": 66.7, "unit": "%"},
      {"measurement": "MIC50", "setting": "Neisseria gonorrhoeae; azithromycin-susceptible isolates", "result": 0.06, "unit": "µg/mL"},
      {"measurement": "MIC50", "setting": "Neisseria gonorrhoeae; ciprofloxacin-intermediate and -resistant strains", "result": 0.06, "unit": "µg/mL"},
      {"measurement": "MIC50", "setting": "Neisseria gonorrhoeae; penicillin-intermediate strains", "result": 0.06, "unit": "µg/mL"},
      {"measurement": "MIC50", "setting": "Neisseria gonorrhoeae; penicillin-resistant strains", "result": 0.06, "unit": "µg/mL"},
      {"measurement": "isolates at ≦0.06 μg/mL", "setting": "Neisseria gonorrhoeae; penicillin-resistant strains", "result": 85.7, "unit": "%"},
      {"measurement": "MIC50", "setting": "Neisseria gonorrhoeae; tetracycline-intermediate strains", "result": 0.06, "unit": "µg/mL"},
      {"measurement": "MIC50", "setting": "Neisseria gonorrhoeae; tetracycline-resistant strains", "result": 0.06, "unit": "µg/mL"},
      {"measurement": "isolates at 0.06 μg/mL", "setting": "Neisseria gonorrhoeae; tetracycline-resistant strains", "result": 66.7, "unit": "%"},
      {"measurement": "cross resistance", "setting": "[7]", "result": "No cross resistance"},
      {"measurement": "efficacy in vivo", "setting": "[8]; S. pyogenes ATC12384 in neutropenic mice", "result": "dose-dependent efficacy"},
      {"measurement": "AUC value for 1-log reduction", "setting": "[8]; [10]", "result": 76, "unit": "μg·h/mL"},
      {"measurement": "AUC value for 2-log reduction", "setting": "[8]; [10]", "result": 95, "unit": "μg·h/mL"},
      {"measurement": "AUC value for stasis", "setting": "[8]; [10]", "result": 60, "unit": "µg·h/mL"},
      {"measurement": "AUC/MIC (free), EC50 ± SEM (% CV)", "setting": "[8]; S. pyogenes neutropenic dose response", "result": "151 ± 7 (5%)"}
    ]}
  ]
}
